Test system: methicillin resistant Staphylococcus aureus (MRSA)
Assay: Agar well diffusion method, antibacterial activity on Mueller Hinton media
Format: cell-based
Settings: for Inhibition zone diameter: bacterial lawn of Staphylococcus aureus grown on Mueller Hinton media, agar well diffusion
Procedure: The antibacterial activities of safranal, a mixture of compound 2 and compound 3 obtained by the thermal epoxidation of safranal according to scheme 1, and a mixture of compound 2 and compound 3 obtained by the photochemical epoxidation of safranal according to scheme 2 against methicillin resistant Staphylococcus aureus (MRSA) were determined by the agar well diffusion method described by Collins, C. H., P. M. Lyne, J. M. Grange, Microbial Methods., 6th Edition, Butterworhs Co. Ltd, London; 1989. p. 410, incorporated herein by reference in its entirety.
Table 1: Antibacterial Activity (Inhibition Zone Diameter) of the Mixture of Compound 2 and Compound 3 Obtained by the Thermal Epoxidation of Safranal or by the Photochemical Epoxidation of Safranal, and Safranal Against Staphylococcus aureus Grown on Mueller Hinton Media Using Agar Well Diffusion Method

## CC1=C(C=O)C(C)(C)CC=C1 [Safranal, 2,6,6-trimethylcyclohexa-1,3-diene-1-carbaldehyde]
Staphylococcus aureus on Mueller Hinton media in a petri dish, agar well containing test substance, FIG. 3B-3D
  Inhibition zone in the bacterial lawn (presence/absence): presence of an inhibition zone
  Inhibition zone diameter: 27.00 mm
Listed as safranal
  Inhibition zone diameter: 27 mm

Source: patent US9707203B1, “Methods of killing bacteria and preventing or treating bacterial infection with oxidation products of safranal and methods of synthesizing safranal epoxides” (King Abdulaziz University, priority 2016, dated 2017)
